From patent US20050256304A1, “Modified factor VIII” (priority 2002, published 2005)

How the values were obtained:
naïve human T-cells = assay: Naïve T cell epitope map: ex vivo T-cell proliferation using PBMC from healthy donors; format: cell-based; conditions: cells of a healthy non haemophiliac individual
From the text: This approach has proven to be a particularly effective method and is disclosed herein as an embodiment of the invention. The method can be applied to test part of the sequence, for example a FVIII protein lacking all or part of the B-domain; the method can be applied to selected regions of the sequence, for example a sub-set of FVIII peptides such as all or some of those listed in FIG. 1; or the method may be applied to test whole FVIII sequence. In the present studies, the method has involved the testing of overlapping FVIII-derived peptide sequences in a scheme so as to scan and test a FVIII sequence lacking the B-domain. The synthetic peptides are tested for their ability to evoke a proliferative response in human T-cell cultured in vitro. […] The stimulation index is conventionally derived by division of the proliferation score (e.g. counts per minute of radioactivity if using ^3H-thymidine incorporation) measured to the test peptide by the score measured in cells not contacted with a test peptide.
Blood from 40 healthy HLA-DR typed donors was used to isolate PBMC which were used to screen individual FVIII peptides at two concentrations (1 and 5 μM). […] MHC allotypes were detected using
PBMC contain physiological numbers of naïve T cells and antigen presenting cells. […] Cultures were harvested onto filtermats and the cpm/well was determined using a Wallac Microplate Beta counter.

[1] = system: T-cells derived from haemophiliac patients; assay: T-cell proliferation with FVIII specific T cell lines from haemophiliac patients; format: cell-based, human; conditions: T-cells from haemophiliac blood
From the text: In a further embodiment of this approach, the inventors have provided a method whereby the FVIII sequence is scanned for the presence and location of T-cell epitopes using ex vivo biological T-cell assays where the T-cells are derived from haemophiliac patients. For a proportion of such patients the FVIII protein constitutes a foreign protein and a potent antigen in vivo. The inventors have established that it is possible to derive polyclonal and in principle mononclonal T-cell lines in vitro from the PBMC of such individuals and these lines may be used as effective reagents in the mapping of T-cell epitopes within the FVIII protein. […]
In the present case in the synthetic peptides were analysed using a system of pools each containing 8 different peptide sequences. […] These cells are stimulated with antigen (e.g. synthetic peptide or whole protein) using most preferably autologous antigen presenting cells as previously for around 4 days and the subsequent proliferative response (if any) is measured thereafter. […] In this way any individual T-cell epitope is represented in 2 separate pools and induced proliferation will be detected from treatments using both of those pools. Where a proliferative response is detected to any given peptide pool, the peptide pool is decoded repeating the assay using the individual pool members in isolation. […]

| Sequence | proliferation of ex vivo T-cells (naïve human T-cells) | proliferation of ex vivo T-cells [1] |
| --- | --- | --- |
| ISQFIIMYSLDGKKW [Peptide P10] | able to evoke proliferation of ex vivo T-cells | able to evoke proliferation of ex vivo T-cells |
| IARYIRLHPTHYSIRSTLRM [Peptide P11] |  | active |
